Where two headings read alike, the source gives them in different places.
Key:
[1] = biological target: PI3K-δ (PI3K(p1108/p857) (h)) (Homo sapiens, UniProt O00329); assay: Evaluation of inhibitory activity against PI3K-δ (HTRF kinase assay); format: biochemical; conditions: for inhibition at 0.01 µM: compound concentration 0.01 μM, read-out: EXP_VALUE(% Inhibition) PI3K-δ 0.01 μM; for inhibition at 0.1 µM: read-out: EXP_VALUE(% Inhibition) PI3K-δ 0.1 μM
In short: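 HTRF read-out (665/620 nm ratio ×10000) used Eu-labelled anti-GST, GST-tagged GRP1 PH domain and streptavidin-allophycocyanin after EDTA/PIP3 stop.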

[2] = biological target: DNA-PK(h) (Homo sapiens, UniProt P78527); assay: Evaluation of inhibitory activity against DNA-PK (HTRF kinase assay, GST-cMyc-p53 substrate); format: biochemical; conditions: for inhibition at 0.01 µM: compound concentration 0.01 μM, read-out: EXP_VALUE(% Inhibition) DNA-PK(h) 0.01 μM; for inhibition at 0.1 µM: read-out: EXP_VALUE(% Inhibition) DNA-PK(h) 0.1 μM
In short: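 p53 Ser15 phosphorylation by human DNA-PK was measured by time-resolved FRET ratio (665/620 nm ×10000) using Eu-labelled anti-phospho-Ser15 and d2 anti-GST antibodies. Substrate GST-cMyc-p53 at 50 μM; Mg/ATP-initiated, 30 min at room temperature, EDTA stop.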

Chain of PI3K-δ (PI3K(p1108/p857) (h)) (O00329 whole entry, the tested form may be a part): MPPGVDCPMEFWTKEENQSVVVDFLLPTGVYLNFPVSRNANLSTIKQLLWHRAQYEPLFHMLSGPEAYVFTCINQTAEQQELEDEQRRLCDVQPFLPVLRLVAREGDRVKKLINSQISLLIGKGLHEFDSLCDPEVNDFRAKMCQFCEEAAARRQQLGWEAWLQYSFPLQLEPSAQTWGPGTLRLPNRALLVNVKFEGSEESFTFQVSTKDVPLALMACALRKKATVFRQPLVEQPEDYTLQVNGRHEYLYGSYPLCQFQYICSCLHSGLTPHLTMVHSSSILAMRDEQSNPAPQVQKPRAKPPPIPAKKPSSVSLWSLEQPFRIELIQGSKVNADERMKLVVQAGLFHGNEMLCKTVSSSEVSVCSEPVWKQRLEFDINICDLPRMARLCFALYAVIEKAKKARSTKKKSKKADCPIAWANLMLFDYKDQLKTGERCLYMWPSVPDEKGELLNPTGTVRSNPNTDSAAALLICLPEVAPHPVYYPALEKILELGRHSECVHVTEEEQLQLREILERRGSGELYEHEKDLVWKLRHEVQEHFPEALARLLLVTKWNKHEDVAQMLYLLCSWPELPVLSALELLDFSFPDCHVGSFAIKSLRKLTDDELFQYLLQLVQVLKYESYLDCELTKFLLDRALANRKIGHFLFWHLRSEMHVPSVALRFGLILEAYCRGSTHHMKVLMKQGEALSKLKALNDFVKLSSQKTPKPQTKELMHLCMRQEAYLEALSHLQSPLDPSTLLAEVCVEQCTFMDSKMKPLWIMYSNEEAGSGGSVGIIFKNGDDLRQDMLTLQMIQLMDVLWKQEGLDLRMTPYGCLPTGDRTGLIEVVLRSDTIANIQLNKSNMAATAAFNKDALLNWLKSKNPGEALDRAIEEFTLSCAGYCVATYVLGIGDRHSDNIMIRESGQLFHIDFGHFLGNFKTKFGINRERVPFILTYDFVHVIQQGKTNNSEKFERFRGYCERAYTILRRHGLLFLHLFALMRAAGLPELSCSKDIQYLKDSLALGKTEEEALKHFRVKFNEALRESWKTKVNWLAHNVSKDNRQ
Chain of PI3K-δ (PI3K(p1108/p857) (h)) (P27986 whole entry partner, the tested form may be a part): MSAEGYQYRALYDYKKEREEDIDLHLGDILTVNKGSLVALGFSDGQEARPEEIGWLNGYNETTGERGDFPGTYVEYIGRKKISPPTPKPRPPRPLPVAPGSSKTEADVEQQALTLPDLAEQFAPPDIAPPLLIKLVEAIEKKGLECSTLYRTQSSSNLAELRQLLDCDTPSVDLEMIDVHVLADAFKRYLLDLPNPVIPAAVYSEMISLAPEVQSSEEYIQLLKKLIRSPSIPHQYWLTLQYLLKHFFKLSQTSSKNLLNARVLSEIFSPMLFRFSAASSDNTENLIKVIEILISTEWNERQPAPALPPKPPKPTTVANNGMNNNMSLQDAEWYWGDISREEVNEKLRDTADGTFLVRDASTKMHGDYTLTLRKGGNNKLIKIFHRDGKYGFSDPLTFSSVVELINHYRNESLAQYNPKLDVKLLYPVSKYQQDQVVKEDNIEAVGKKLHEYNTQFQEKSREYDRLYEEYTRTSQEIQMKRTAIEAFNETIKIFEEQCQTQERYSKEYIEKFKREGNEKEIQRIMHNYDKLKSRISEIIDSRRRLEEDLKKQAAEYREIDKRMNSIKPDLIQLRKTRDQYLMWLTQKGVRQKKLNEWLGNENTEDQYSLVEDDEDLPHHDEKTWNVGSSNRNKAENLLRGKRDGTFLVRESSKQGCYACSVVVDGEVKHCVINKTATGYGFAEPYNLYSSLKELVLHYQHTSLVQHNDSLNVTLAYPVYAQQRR

Row | SMILES | inhibition at 0.01 µM [1] [%] | inhibition at 0.01 µM [2] [%] | inhibition at 0.1 µM ([1]; compound concentration 0.1 μM) [%] | inhibition at 0.1 µM ([2]; compound concentration 0.1 μM) [%] | inhibition at 0.1 µM ([1]; compound at 0.1 μM) [%] | inhibition at 0.1 µM ([2]; compound at 0.1 μM) [%]
1 | C[C@H](Nc1ncnc2[nH]ccc(=O)c12)c1c(Cl)c2cccc(-c3ccc4nncn4c3)c2c(=O)n1-c1ccccc1 [Example 37, (S)-4-((1-(8-([1,2,4]triazolo[4,3-a]pyridin-6-yl)-4-chloro-1-oxo-2-phenyl-1,2-dihydroisoquinolin-3-yl)ethyl)amino)pyrido[2,3-d]pyrimidin-5(8H)-one] | 89 | 60 | – | – | – | –
2 | COc1ncc(-c2cccc3c(Cl)c([C@H](C)Nc4ncnc5[nH]ccc(=O)c45)n(-c4ccccc4)c(=O)c23)cc1Cl [Example 187, (S)-4-((1-(4-chloro-8-(5-chloro-6-methoxypyridin-3-yl)-1-oxo-2-phenyl-1,2-dihydroisoquinolin-3-yl)ethyl)amino)pyrido[2,3-d]pyrimidin-5(8H)-one] | 79 | 45 | – | – | – | –
3 | C[C@H](Nc1ncnc2[nH]ccc(=O)c12)c1c(Cl)c2cccc(-c3ccc(C(=O)O)cc3)c2c(=O)n1-c1ccccc1 [Example 166, (S)-4-(4-chloro-1-oxo-3-(1-((5-oxo-5,8-dihydropyrido[2,3-d]pyrimidin-4-yl)amino)ethyl)-2-phenyl-1,2-dihydroisoquinolin-8-yl)benzoic acid] | 59 | 67 | – | – | – | –
4 | Cc1ccc(-c2cccc3c(Cl)c([C@H](C)Nc4ncnc5[nH]ccc(=O)c45)n(-c4ccccc4)c(=O)c23)c(C)n1 [Example 248, (S)-4-((1-(4-chloro-8-(2,6-dimethylpyridin-3-yl)-1-oxo-2-phenyl-1,2-dihydroisoquinolin-3-yl)ethyl)amino)pyrido[2,3-d]pyrimidin-5(8H)-one] | 99 | 66 | – | – | – | –
5 | C[C@H](Nc1ncnc2[nH]ccc(=O)c12)c1c(Cl)c2cccc(SCc3ccc(Cl)cc3)c2c(=O)n1-c1ccccc1 [Example 369, (S)-4-((1-(4-chloro-8-((4-chlorobenzyl)thio)-1-oxo-2-phenyl-1,2-dihydroisoquinolin-3-yl)ethyl)amino)pyrido[2,3-d]pyrimidin-5(8H)-one] | 5 | 14 | 27 | 54 | – | –
6 | COC(C)(C)c1ncc(-c2cccc3c(Cl)c([C@H](C)Nc4ncnc5[nH]ccc(=O)c45)n(-c4ccccc4)c(=O)c23)cn1 [Example 405, (S)-4-((1-(4-chloro-8-(2-(2-methoxypropan-2-yl)pyrimidin-5-yl)-1-oxo-2-phenyl-1,2-dihydroisoquinolin-3-yl)ethyl)amino)pyrido[2,3-d]pyrimidin-5(8H)-one] | – | – | – | – | 69 | 74
7 | C[C@H](Nc1ncnc2[nH]ccc(=O)c12)c1c(Cl)c2cccc(-c3cc(O)c(O)c(F)c3)c2c(=O)n1-c1ccccc1 [Example 36, (S)-4-((1-(4-chloro-8-(3-fluoro-4,5-dihydroxyphenyl)-1-oxo-2-phenyl-1,2-dihydroisoquinolin-3-yl)ethyl)amino)pyrido[2,3-d]pyrimidin-5(8H)-one] | 74 | 34 | – | – | – | –
8 | C[C@H](Nc1ncnc2[nH]ccc(=O)c12)c1c(Br)c2cccc(-c3ccc(F)cc3)c2c(=O)n1-c1ccccc1 [Example 18, (S)-4-((1-(4-bromo-8-(4-fluorophenyl)-1-oxo-2-phenyl-1,2-dihydroisoquinolin-3-yl)ethyl)amino)pyrido[2,3-d]pyrimidin-5(8H)-one] | 80 | 75 | 96 | 98 | – | –
9 | C[C@H](Nc1ncnc2[nH]ccc(=O)c12)c1c(Cl)c2cccc(-c3ccc4[nH]ncc4c3)c2c(=O)n1-c1ccccc1 [Example 236, (S)-4-((1-(4-chloro-8-(1H-indazol-5-yl)-1-oxo-2-phenyl-1,2-dihydroisoquinolin-3-yl)ethyl)amino)pyrido[2,3-d]pyrimidin-5(8H)-one] | 79 | 46 | – | – | – | –
10 | CCOc1ncc(-c2cccc3c(Cl)c([C@H](C)Nc4ncnc5[nH]ccc(=O)c45)n(-c4ccccc4)c(=O)c23)cn1 [Example 188, (S)-4-((1-(4-chloro-8-(2-ethoxypyrimidin-5-yl)-1-oxo-2-phenyl-1,2-dihydroisoquinolin-3-yl)ethyl)amino)pyrido[2,3-d]pyrimidin-5(8H)-one] | 101 | 67 | – | – | – | –
11 | C[C@H](Nc1ncnc2[nH]ccc(=O)c12)c1c(Cl)c2cccc(-c3cnc(CC#N)nc3)c2c(=O)n1-c1ccccc1 [Example 39, (S)-2-(5-(4-chloro-1-oxo-3-(1-((5-oxo-5,8-dihydropyrido[2,3-d]pyrimidin-4-yl)amino)ethyl)-2-phenyl-1,2-dihydroisoquinolin-8-yl)pyrimidin-2-yl)acetonitrile] | 47 | 57 | – | – | – | –
12 | C[C@H](Nc1ncnc2[nH]ccc(=O)c12)c1c(Cl)c2cccc(-c3ccc(N(C)C)nc3)c2c(=O)n1-c1ccccc1 [Example 86, (S)-4-((1-(4-chloro-8-(6-(dimethylamino)pyridin-3-yl)-1-oxo-2-phenyl-1,2-dihydroisoquinolin-3-yl)ethyl)amino)pyrido[2,3-d]pyrimidin-5(8H)-one] | 67 | 72 | 94 | 95 | – | –

Results, then the molecule that gave them:

Row | inhibition at 0.01 µM [1] [%] | inhibition at 0.01 µM [2] [%] | inhibition at 0.1 µM ([1]; compound concentration 0.1 μM) [%] | inhibition at 0.1 µM ([2]; compound concentration 0.1 μM) [%] | inhibition at 0.1 µM ([1]; compound at 0.1 μM) [%] | inhibition at 0.1 µM ([2]; compound at 0.1 μM) [%] | SMILES
13 | 69 | 8 | 20 | 52 | – | – | C[C@H](Nc1ncnc2[nH]ccc(=O)c12)c1c(Cl)c2cccc(N3CCCC3O)c2c(=O)n1-c1ccccc1 (stereo partly drawn) [Example 339, 4-(((1S)-1-(4-chloro-8-(2-hydroxypyrrolidin-1-yl)-1-oxo-2-phenyl-1,2-dihydroisoquinolin-3-yl)ethyl)amino)pyrido[2,3-d]pyrimidin-5(8H)-one]
14 | 53 | 82 | – | – | – | – | C[C@H](Nc1ncnc2[nH]ccc(=O)c12)c1c(Cl)c2cccc(-c3ccc(N)nc3)c2c(=O)n1-c1ccccc1 [Example 172, (S)-4-((1-(8-(6-aminopyridin-3-yl)-4-chloro-1-oxo-2-phenyl-1,2-dihydroisoquinolin-3-yl)ethyl)amino)pyrido[2,3-d]pyrimidin-5(8H)-one]
15 | – | – | – | – | 86 | 16 | C[C@H](Nc1ncnc2[nH]ccc(=O)c12)c1c(Cl)c2cccc(S(C)(=N)=O)c2c(=O)n1-c1ccccc1 (stereo partly drawn) [Example 425, 4-(((1S)-1-(4-chloro-8-(S-methylsulfonimidoyl)-1-oxo-2-phenyl-1,2-dihydroisoquinolin-3-yl)ethyl)amino)pyrido[2,3-d]pyrimidin-5(8H)-one]
16 | 30 | -1 | 75 | 33 | – | – | C[C@H](Nc1ncnc2[nH]ccc(=O)c12)c1c(Cl)c2cccc(NC3CCOCC3)c2c(=O)n1-c1ccccc1 [Example 332, (S)-4-((1-(4-chloro-1-oxo-2-phenyl-8-((tetrahydro-2H-pyran-4-yl)amino)-1,2-dihydroisoquinolin-3-yl)ethyl)amino)pyrido[2,3-d]pyrimidin-5(8H)-one]
17 | 28 | 8 | – | – | – | – | Cc1nc(-c2cccc3c(Cl)c([C@H](C)Nc4ncnc5[nH]ccc(=O)c45)n(-c4ccccc4)c(=O)c23)[nH]c1C [Example 288, (S)-4-((1-(4-chloro-8-(4,5-dimethyl-1H-imidazol-2-yl)-1-oxo-2-phenyl-1,2-dihydroisoquinolin-3-yl)ethyl)amino)pyrido[2,3-d]pyrimidin-5(8H)-one]
18 | 118 | 101 | – | – | – | – | C[C@H](Nc1ncnc2[nH]ccc(=O)c12)c1c(Cl)c2cccc(-c3ccnc(F)c3)c2c(=O)n1-c1ccccc1 [Example 195, (S)-4-((1-(4-chloro-8-(2-fluoropyridin-4-yl)-1-oxo-2-phenyl-1,2-dihydroisoquinolin-3-yl)ethyl)amino)pyrido[2,3-d]pyrimidin-5(8H)-one]
19 | 72 | 25 | – | – | – | – | C[C@H](Nc1ncnc2[nH]ccc(=O)c12)c1c(Cl)c2cccc(-c3cc(F)c4c(c3)NCCO4)c2c(=O)n1-c1ccccc1 [Example 192, (S)-4-((1-(4-chloro-8-(8-fluoro-3,4-dihydro-2H-benzo[b] [1,4]oxazin-6-yl)-1-oxo-2-phenyl-1,2-dihydroisoquinolin-3-yl)ethyl)amino)pyrido[2,3-d]pyrimidin-5(8H)-one]
20 | 96 | 29 | – | – | – | – | C[C@H](Nc1ncnc2[nH]ccc(=O)c12)c1c(Cl)c2cccc(C(=O)NC3COC3)c2c(=O)n1-c1ccccc1 [Example 276, (S)-4-chloro-N-(oxetan-3-yl)-1-oxo-3-(1-((5-oxo-5,8-dihydropyrido[2,3-d]pyrimidin-4-yl)amino)ethyl)-2-phenyl-1,2-dihydroisoquinoline-8-carboxamide]
21 | 22 | 8 | 65 | 28 | – | – | C[C@H](Nc1ncnc2[nH]ccc(=O)c12)c1c(Cl)c2cccc(NC3CC3)c2c(=O)n1-c1ccccc1 [Example 323, (S)-4-((1-(4-chloro-8-(cyclopropylamino)-1-oxo-2-phenyl-1,2-dihydroisoquinolin-3-yl)ethyl)amino)pyrido[2,3-d]pyrimidin-5(8H)-one]

— US20230072683A1, “PYRIDO-PYRIMIDIN DERIVATIVES AND PHARMACEUTICAL COMPOSITION, FOR USE IN PREVENTING OR TREATING PI3 KINASE RELATED DISEASES, COMPRISING SAME AS ACTIVE INGREDIENT” (BORYUNG PHARMACEUTICAL CO., LTD, priority 2019, published 2023)
